Results published in patent US20220273683A1, “BORON-CONTAINING SMALL MOLECULES” (Bill & Melinda Gates Foundation, priority 2016, published 2022).

Legend:
Format in all cases: cell-based
[1] = system: Streptococcus pneumoniae (ATCC 49619); assay: Antibacterial MIC assay (microbroth dilution, CLSI); settings: 3% lysed horse blood, 35° C., 16-20 hours
From the text: (§1) All MIC testing of bacteria followed the Clinical and Laboratory Standards Institute (CLSI) guidelines for antimicrobial testing of aerobic bacteria (Methods for Dilution Antimicrobial Susceptibility Tests for Bacteria that Grow Aerobically; Approved Standard—Tenth Edition, M07-A10; Performance Standards for Antimicrobial Susceptibility Testing; Twenty-fifth Informational Supplement, M100-S25).
(§2) Briefly, the microbroth dilution MIC method was used to quantitatively measure the in vitro antibacterial activity of a compound against a given bacterial isolate. The following bacterial strains were evaluated: Staphylococcus aureus, MRSA (ATCC 33591) and Streptococcus pneumoniae (ATCC 49619). Bacteria were grown in cation-adjusted Mueller-Hinton broth, with additions as required per species growth requirements (e.g. 3% lysed horse blood for fastidious organisms such as S. pneumoniae). A direct colony suspension in saline was prepared from colonies on an overnight agar plate to achieve a turbidity equivalent to 0.5 McFarland standard, which was subsequently diluted into the assay plate to achieve 5×10^5 CFU/mL. Assays plates were prepared by 2-fold dilution of compound across the plate and included a positive growth control.

[2] = system: Staphylococcus aureus, MRSA (ATCC 33591); assay: as above; settings: 35° C., 16-20 hours
From the text: as §1, §2

[3] = system: Wolbachia pipientis in C6/36 cell line; assay: Anti-Wolbachia high-content assay; settings: C6/36 (wAlbB) cells, 7 days at 26° C., 50% reduction of Wolbachia
From the text: C6/36 cells (ECACC #89051705, derived from Aedes albopictus larvae) were infected with Wolbachia pipientis derived from the supernatant of cultured A. albopictus Aa23 cells to create a stably Wolbachia-infected cell line C6/36 (wAlbB). This cell line was subpassaged 6-8 days prior to plating out at a density of 2000 viable cells per well in a 384-well CellCarrier plate suspended in Liebovitz media supplemented with 20% fetal bovine serum, 2% tryptose phosphate broth and 1% non-essential amino acids. Compounds were dissolved and diluted in DMSO, and compound solution was added to each well to provide a final DMSO concentration <1% and a total volume of 100 μL per well. Following 7 days of sterile incubation at 26° C., staining media containing SYTO 11 DNA dye was added to each well. After 15 minutes, all media was removed from each well and fresh media (no stain) was added. Imaging of each well was accomplished using a Perkin Elmer Operetta high-content imaging system. Five fields per well were imaged using a confocal 60× objective with the Fluorescein filter (excitation filter: 460-490 nm; emission filter: 500-550 nm). Images were analyzed using the Perkin Elmer Harmony software to score each intact cell on the basis of texture complexity of the cytoplasm. Full details can be found in: […]. Biomol. Screening, 2015, 20, […]. Compound sample wells were analyzed and normalized (along with the positive controls) against the vehicle (untreated) control to give a percentage reduction of Wolbachia-infected cells. Using the cell number analysis, compounds with a host cell number amounting to less than 50% of the vehicle control were classified as toxic and retested at a reduced compound concentration. Dose-response curves were generated with percentage reduction of Wolbachia-infected cells versus compound concentration, using 5-10 compound serial dilutions. Data were analyzed and compound EC50 is determined using a 4 parameter logistic nonlinear regression model.

| MIC Streptococcus pneumoniae (ATCC 49619) [1] | MIC Staphylococcus aureus, MRSA (ATCC 33591) [2] | Structure (SMILES) | EC50 [3] |
| --- | --- | --- | --- |
| C (4-32 is C) | B (0.5-2 is B) | CONC[C@]1(C)C[C@@H](OC(=O)COc2ccc3c(c2F)B(O)OC3)[C@]2(C)[C@H](C)CC[C@]3(CCC(=O)[C@H]32)[C@@H](C)[C@@H]1O [Compound 45, (3aR,4R,5R,7S,8S,9R,9aS,12R)-8-hydroxy-7-((methoxyamino)methyl)-4,7,9,12-tetramethyl-3-oxodecahydro-4,9a-propanocyclopenta[8]annulen-5-yl2-((7-fluoro-1-hydroxy-1,3-dihydrobenzo[c][1,2]oxaborol-6-yl)oxy)acetate] |  |
| C (4-32 is C) | C (4-32 is C) | CCCNC[C@]1(C)C[C@@H](OC(=O)COc2ccc3c(c2F)B(O)OC3)[C@]2(C)[C@H](C)CC[C@]3(CCC(=O)[C@H]32)[C@@H](C)[C@@H]1O [Compound 35, (3aR,4R,5R,7S,8S,9R,9aS,12R)-8-hydroxy-4,7,9,12-tetramethyl-3-oxo-7-((propylamino)methyl)decahydro-4,9a-propanocyclopenta[8]annulen-5-yl2-((7-fluoro-1-hydroxy-1,3-dihydrobenzo[c][1,2]oxaborol-6-yl)oxy)acetate] |  |
| D (≥64 is D) | C (4-32 is C) | CCN(CC)CC[C@]1(C)C[C@@H](OC(=O)COc2ccc3c(c2F)B(O)OC3)[C@]2(C)[C@H](C)CC[C@]3(CCC(=O)[C@H]32)[C@@H](C)[C@@H]1O [Compound 42, (3aR,4R,5R,7R,8S,9R,9aS,12R)-7-(2-(diethylamino)ethyl)-8-hydroxy-4,7,9,12-tetramethyl-3-oxodecahydro-4,9a-propanocyclopenta[8]annulen-5-yl2-((7-fluoro-1-hydroxy-1,3-dihydrobenzo[c][1,2]oxaborol-6-yl)oxy)acetate] |  |
| C (4-32 is C) | C (4-32 is C) | C[C@@H]1CC[C@@]23CCC(=O)[C@H]2[C@]1(C)[C@H](OC(=O)COc1ccc2c(c1F)B(O)OC2)C[C@@](C)(CN)[C@@H](OS(C)(=O)=O)[C@@H]3C [Compound 50, (3aR,4R,5R,7S,8S,9R,9aS,12R)-7-(aminomethyl)-4,7,9,12-tetramethyl-8-((methylsulfonyl)oxy)-3-oxodecahydro-4,9a-propanocyclopenta[8]annulen-5-yl2-((7-fluoro-1-hydroxy-1,3-dihydrobenzo[c][1,2]oxaborol-6-yl)oxy)acetate] |  |
| C (4-32 is C) | B (0.5-2 is B) | C[C@@H]1CC[C@@]23CCC(=O)[C@H]2[C@]1(C)[C@H](OC(=O)COc1ccc2c(c1F)B(O)OC2)C[C@@](C)(CN)[C@@H](O)[C@@H]3C [Compound 47, (3aR,4R,5R,7S,8S,9R,9aS,12R)-7-(aminomethyl)-8-hydroxy-4,7,9,12-tetramethyl-3-oxodecahydro-4,9a-propanocyclopenta[8]annulen-5-yl2-((7-fluoro-1-hydroxy-1,3-dihydrobenzo[c][1,2]oxaborol-6-yl)oxy)acetate] |  |
| D (≥64 is D) | C (4-32 is C) | C[C@@H]1CC[C@@]23CCC(=O)[C@H]2[C@]1(C)[C@H](OC(=O)COc1ccc2c(c1F)B(O)OC2)C[C@@](C)(CCN1CCCCC1)[C@@H](O)[C@@H]3C [Compound 40, (3aR,4R,5R,7R,8S,9R,9aS,12R)-8-hydroxy-4,7,9,12-tetramethyl-3-oxo-7-(2-(piperidin-1-yl)ethyl)decahydro-4,9a-propanocyclopenta[8]annulen-5-yl2-((7-fluoro-1-hydroxy-1,3-dihydrobenzo[c][1,2]oxaborol-6-yl)oxy)acetate] |  |
| B (0.5-2 is B) | B (0.5-2 is B) | Cc1nnc(/C=C/[C@]2(C)C[C@@H](OC(=O)COc3ccc4c(c3F)B(O)OC4)[C@]3(C)[C@H](C)CC[C@]4(CCC(=O)[C@H]43)[C@@H](C)[C@@H]2O)o1 [Compound 51, (3aR,4R,5R,7S,8S,9R,9aS,12R)-8-hydroxy-4,7,9,12-tetramethyl-7-((E)-2-(5-methyl-1,3,4-oxadiazol-2-yl)vinyl)-3-oxodecahydro-4,9a-propanocyclopenta[8]annulen-5-yl2-((7-fluoro-1-hydroxy-1,3-dihydrobenzo[c][1,2]oxaborol-6-yl)oxy)acetate] |  |

Continued, compound first:

| Structure (SMILES) | MIC Streptococcus pneumoniae (ATCC 49619) [1] | MIC Staphylococcus aureus, MRSA (ATCC 33591) [2] | EC50 [3] |
| --- | --- | --- | --- |
| CC[C@]1(C)C[C@@H](OC(=O)COc2cc(CN)c3c(c2)B(O)OC3)[C@]2(C)[C@H](C)CC[C@]3(CCC(=O)[C@H]32)[C@@H](C)[C@@H]1O [Compound 20, (3aR,4R,5R,7R,8S,9R,9aS,12R)-7-ethyl-8-hydroxy-4,7,9,12-tetramethyl-3-oxodecahydro-4,9a-propanocyclopenta[8]annulen-5-yl2-((4-(aminomethyl)-1-hydroxy-1,3-dihydrobenzo[c][1,2]oxaborol-6-yl)oxy)acetate] | B (0.5-2 is B) | A (MIC of ≤0.25 is A) | 101 nM |
| C[C@@H]1CC[C@@]23CCC(=O)[C@H]2[C@]1(C)[C@H](OC(=O)COc1ccc2c(c1F)B(O)OC2)C[C@@](C)(CCC(=O)NC1CC1)[C@@H](O)[C@@H]3C [Compound 6, (3aR,4R,5R,7R,8S,9R,9aS,12R)-7-(3-(cyclopropylamino)-3-oxopropyl)-8-hydroxy-4,7,9,12-tetramethyl-3-oxodecahydro-4,9a-propanocyclopenta[8]annulen-5-yl2-((7-fluoro-1-hydroxy-1,3-dihydrobenzo[c][1,2]oxaborol-6-yl)oxy)acetate] | B (0.5-2 is B) | B (0.5-2 is B) | 392 nM |
| C[C@@H]1CC[C@@]23CCC(=O)[C@H]2[C@]1(C)[C@H](OC(=O)COc1ccc2c(c1F)B(O)OC2)C[C@@]1(C)CC(O)O[C@H]1[C@@H]3C (stereo partly drawn) [Compound 9, (3aS,5R,6R,6aR,9aS,10R,10aS,13R)-2-hydroxy-3a,6,10,13-tetramethyl-7-oxododecahydro-6,9a-propanocyclopenta[6,7]cycloocta[1,2-b]furan-5-yl2-((7-fluoro-1-hydroxy-1,3-dihydrobenzo[c][1,2]oxaborol-6-yl)oxy)acetate] | C (4-32 is C) | C (4-32 is C) |  |
| C[C@@H]1CC[C@@]23CCC(=O)[C@H]2[C@]1(C)[C@H](OC(=O)COc1ccc2c(c1F)B(O)OC2)C[C@@](C)(Cc1ccccc1)[C@@H](O)[C@@H]3C [Compound 10, (3aR,4R,5R,7R,8S,9R,9aS,12R)-7-benzyl-8-hydroxy-4,7,9,12-tetramethyl-3-oxodecahydro-4,9a-propanocyclopenta[8]annulen-5-yl2-((7-fluoro-1-hydroxy-1,3-dihydrobenzo[c][1,2]oxaborol-6-yl)oxy)acetate] | B (0.5-2 is B) | A (MIC of ≤0.25 is A) |  |
| C[C@@H]1CC[C@@]23CCC(=O)[C@H]2[C@]1(C)[C@H](OC(=O)COc1ccc2c(c1F)B(O)OC2)C[C@@](C)(CN1CCC1)[C@@H](O)[C@@H]3C [Compound 38, (3aR,4R,5R,7S,8S,9R,9aS,12R)-7-(azetidin-1-ylmethyl)-8-hydroxy-4,7,9,12-tetramethyl-3-oxodecahydro-4,9a-propanocyclopenta[8]annulen-5-yl2-((7-fluoro-1-hydroxy-1,3-dihydrobenzo[c][1,2]oxaborol-6-yl)oxy)acetate] | C (4-32 is C) | B (0.5-2 is B) |  |
| C[C@@H]1CC[C@@]23CCC(=O)[C@H]2[C@]1(C)[C@H](OC(=O)COc1ccc2c(c1F)B(O)OC2)C[C@@](C)(CCO)[C@@H](O)[C@@H]3C [Compound 25, (3aR,4R,5R,7R,8S,9R,9aS,12R)-8-hydroxy-7-(2-hydroxyethyl)-4,7,9,12-tetramethyl-3-oxodecahydro-4,9a-propanocyclopenta[8]annulen-5-yl2-((7-fluoro-1-hydroxy-1,3-dihydrobenzo[c][1,2]oxaborol-6-yl)oxy)acetate] | C (4-32 is C) | B (0.5-2 is B) |  |
